Test results from patent publication US9714228B2, “Dihydrofuran derivatives as insecticidal compounds” (Syngenta Participations AG, priority 2010, dated 2017).

Experiments:
Assay type in all cases: in vivo
Spodoptera littoralis [1] = assay: Spodoptera littoralis (systemic), salad grown on treated agar, eggs; settings: 120 h, application rate 12.5 ppm, checked 5 days after infestation (mortality, repellent effect, feeding behavior, growth regulation)
From the text: Spodoptera littoralis (Systemic) (Egyptian Cotton Leaf Worm) Test compounds were applied by pipette into 24 well plates and mixed with agar. Salad seeds were placed on the agar and the multi well plate is closed by another plate which contains also agar. After 7 days the roots have absorbed the compound and the salad has grown into the lid plate. The salad leafs were now cut off into the lid plate. Spodoptera eggs were pipette through a plastic stencil on a humid gel blotting paper and the plate closed with it. The samples are checked for mortality, repellent effect, feeding behavior, and growth regulation 5 days after infestation. Application rate: 12.5 ppm

Spodoptera littoralis [2] = assay: Spodoptera littoralis, sprayed cotton leaf discs, L1 larvae; settings: foliar, 72 h, cotton leaf discs sprayed at 200 ppm, 3 days after treatment
From the text: Spodoptera littoralis (Egyptian Cotton Leafworm): Cotton leaf discs were placed on agar in a 24-well microtiter plate and sprayed with test solutions at an application rate of 200 ppm. After drying, the leaf discs were infested with 5 L1 larvae. The samples were checked for mortality, feeding behavior, and growth regulation 3 days after treatment (DAT).

Heliothis virescens = assay: Heliothis virescens, eggs on treated artificial diet; settings: 96 h, 200 ppm (concentration in well 18 ppm), 4 days incubation
Experimental: Heliothis virescens (Tobacco Budworm): Eggs (0-24 h old) were placed in 24-well microtiter plate on artificial diet and treated with test solutions at an application rate of 200 ppm (concentration in well 18 ppm) by pipetting. After an incubation period of 4 days, samples were checked for egg mortality, larval mortality, and growth regulation.

Plutella xylostella = assay: Plutella xylostella, L2 larvae on treated artificial diet; settings: 144 h, 200 ppm (concentration in well 18 ppm), 6 days incubation
Experimental: (§1) Plutella xylostella (Diamond Back Moth): 24-well microtiter plate (MTP) with artificial diet was treated with test solutions at an application rate of 200 ppm (concentration in well 18 ppm) by pipetting. After drying, the MTPs were infested with L2 larvae (7-12 per well). After an incubation period of 6 days, samples were checked for larval mortality and growth regulation.

Diabrotica balteata = assay: Diabrotica balteata, L2 larvae on treated artificial diet; settings: 120 h, 200 ppm (concentration in well 18 ppm), 5 days incubation
Experimental: as §1, with “Diabrotica balteata (Corn Root Worm): A” for “Plutella xylostella (Diamond Back Moth):”, “(6-10” for “(7-12”, “5” for “6”

Myzus persicae = Myzus persicae (sachet), mixed population, sucrose solution; settings: 120 h, application rate 12.5 ppm, mortality 5 days after infestation
From the text: Myzus persicae (Sachet) (Green Peach Aphid) Mixed Population Test compounds were applied by pipette into 24 well plates and mixed with Sucrose solution. The plates were closed with a stretched Parafilm. A plastic stencil with 24 holes is placed onto the plate and infested pea seedlings were placed directly on the Parafilm. The infested plate is closed with a gel blotting paper and another plastic stencil and then turned upside down. 5 days after infestation the samples were checked on mortality. Application rate: 12.5 ppm.

Thrips tabaci = assay: Thrips tabaci, sprayed sunflower leaf discs; settings: foliar, 168 h, sunflower leaf discs sprayed at 200 ppm, mixed ages, mortality after 7 days
Experimental: Thrips tabaci (Onion Thrips): Sunflower leaf discs were placed on agar in a 24-well microtiter plate and sprayed with test solutions at an application rate of 200 ppm. After drying, the leaf discs were infested with an […] population of mixed ages. After an incubation period of 7 days, samples were checked for mortality.

Tetranychus urticae = assay: Tetranychus urticae, sprayed bean leaf discs; settings: foliar, 192 h, bean leaf discs sprayed at 200 ppm, mixed ages, checked 8 days later
From the text: Tetranychus urticae (Two-Spotted Spider Mite): Bean leaf discs on agar in 24-well microtiter plates were sprayed with test solutions at an application rate of 200 ppm. After drying, the leaf discs are infested with mite populations of mixed ages. 8 days later, discs are checked for egg mortality, larval mortality, and adult mortality.

Cc1cc(C2=COC(c3cc(Cl)cc(Cl)c3)(C(F)(F)F)C2)ccc1C(=O)NCc1ccccn1 (centres unmarked) [Compound D15]
≥ 80%: pest or weed control at 12.5 ppm (Spodoptera littoralis [1]) | pest or weed control at 200 ppm (Spodoptera littoralis [2]) | pest or weed control at 200 ppm (Heliothis virescens) | pest or weed control at 200 ppm (Plutella xylostella) | pest or weed control at 200 ppm (Diabrotica balteata) | pest or weed control at 12.5 ppm (Myzus persicae) | pest or weed control at 200 ppm (Thrips tabaci) | pest or weed control at 200 ppm (Tetranychus urticae)

Cc1cc(C2=COC(c3cc(Cl)cc(Cl)c3)(C(F)(F)F)C2)ccc1C(=O)NCCC(F)(F)F (centres unmarked) [Compound D6]
≥ 80%: pest or weed control at 200 ppm (Spodoptera littoralis [2]) | pest or weed control at 200 ppm (Heliothis virescens) | pest or weed control at 200 ppm (Plutella xylostella) | pest or weed control at 200 ppm (Diabrotica balteata) | pest or weed control at 12.5 ppm (Myzus persicae) | pest or weed control at 200 ppm (Thrips tabaci) | pest or weed control at 200 ppm (Tetranychus urticae)

Cc1cc(C2=COC(c3cc(Cl)cc(Cl)c3)(C(F)(F)F)C2)ccc1C(=O)NCc1ccccc1F (centres unmarked) [Compound D10]
≥ 80%: pest or weed control at 200 ppm (Spodoptera littoralis [2]) | pest or weed control at 200 ppm (Heliothis virescens) | pest or weed control at 200 ppm (Plutella xylostella) | pest or weed control at 200 ppm (Diabrotica balteata) | pest or weed control at 12.5 ppm (Myzus persicae) | pest or weed control at 200 ppm (Thrips tabaci) | pest or weed control at 200 ppm (Tetranychus urticae)

Cc1cc(C2=COC(c3cc(Cl)cc(Cl)c3)(C(F)(F)F)C2)ccc1C(=O)NC1CSC1 (centres unmarked) [Compound D21]
≥ 80%: pest or weed control at 12.5 ppm (Spodoptera littoralis [1]) | pest or weed control at 200 ppm (Spodoptera littoralis [2]) | pest or weed control at 200 ppm (Heliothis virescens) | pest or weed control at 200 ppm (Plutella xylostella) | pest or weed control at 200 ppm (Diabrotica balteata) | pest or weed control at 12.5 ppm (Myzus persicae) | pest or weed control at 200 ppm (Thrips tabaci) | pest or weed control at 200 ppm (Tetranychus urticae)

CCC(C)NC(=O)c1ccc(C2=COC(c3cc(Cl)cc(Cl)c3)(C(F)(F)F)C2)cc1C (centres unmarked) [Compound D7]
≥ 80%: pest or weed control at 200 ppm (Spodoptera littoralis [2]) | pest or weed control at 200 ppm (Heliothis virescens) | pest or weed control at 200 ppm (Plutella xylostella) | pest or weed control at 200 ppm (Diabrotica balteata) | pest or weed control at 12.5 ppm (Myzus persicae)

Cc1csc(NC(=O)c2ccc(C3=COC(c4cc(Cl)cc(Cl)c4)(C(F)(F)F)C3)cc2C)n1 (centres unmarked) [Compound D17]
≥ 80%: pest or weed control at 200 ppm (Spodoptera littoralis [2]) | pest or weed control at 200 ppm (Heliothis virescens) | pest or weed control at 200 ppm (Plutella xylostella) | pest or weed control at 200 ppm (Diabrotica balteata) | pest or weed control at 12.5 ppm (Myzus persicae)

COCC(C)NC(=O)c1ccc(C2=COC(c3cc(Cl)cc(Cl)c3)(C(F)(F)F)C2)cc1C (centres unmarked) [Compound D4]
≥ 80%: pest or weed control at 200 ppm (Spodoptera littoralis [2]) | pest or weed control at 200 ppm (Heliothis virescens) | pest or weed control at 200 ppm (Plutella xylostella) | pest or weed control at 200 ppm (Diabrotica balteata) | pest or weed control at 12.5 ppm (Myzus persicae) | pest or weed control at 200 ppm (Thrips tabaci) | pest or weed control at 200 ppm (Tetranychus urticae)

Cc1cc(C2=CC(c3cc(Cl)cc(Cl)c3)(C(F)(F)F)OC2)ccc1C(=O)NCc1ccc2c(c1)OCCO2 (centres unmarked) [Compound A44]
≥ 80%: pest or weed control at 200 ppm (Spodoptera littoralis [2]) | pest or weed control at 200 ppm (Heliothis virescens) | pest or weed control at 200 ppm (Plutella xylostella) | pest or weed control at 200 ppm (Diabrotica balteata)

COc1ccc(CNC(=O)c2ccc(C3=COC(c4cc(Cl)cc(Cl)c4)(C(F)(F)F)C3)cc2C)cc1 (centres unmarked) [Compound D12]
≥ 80%: pest or weed control at 200 ppm (Spodoptera littoralis [2]) | pest or weed control at 200 ppm (Heliothis virescens) | pest or weed control at 200 ppm (Plutella xylostella) | pest or weed control at 200 ppm (Diabrotica balteata) | pest or weed control at 12.5 ppm (Myzus persicae) | pest or weed control at 200 ppm (Thrips tabaci) | pest or weed control at 200 ppm (Tetranychus urticae)

Cc1cc(C2=COC(c3cc(Cl)cc(Cl)c3)(C(F)(F)F)C2)ccc1C(=O)NC(C)c1ccccc1 (centres unmarked) [Compound D11]
≥ 80%: pest or weed control at 200 ppm (Spodoptera littoralis [2]) | pest or weed control at 200 ppm (Heliothis virescens) | pest or weed control at 200 ppm (Plutella xylostella) | pest or weed control at 200 ppm (Diabrotica balteata) | pest or weed control at 12.5 ppm (Myzus persicae) | pest or weed control at 200 ppm (Thrips tabaci) | pest or weed control at 200 ppm (Tetranychus urticae)

Cc1cc(C2=COC(c3cc(Cl)cc(Cl)c3)(C(F)(F)F)C2)ccc1C(=O)NC1CCC1 (centres unmarked) [Compound D23]
≥ 80%: pest or weed control at 200 ppm (Spodoptera littoralis [2]) | pest or weed control at 200 ppm (Heliothis virescens) | pest or weed control at 200 ppm (Plutella xylostella) | pest or weed control at 200 ppm (Diabrotica balteata) | pest or weed control at 12.5 ppm (Myzus persicae) | pest or weed control at 200 ppm (Thrips tabaci) | pest or weed control at 200 ppm (Tetranychus urticae)

Cc1cc(C2=CC(c3cc(Cl)cc(Cl)c3)(C(F)(F)F)OC2)ccc1C(=O)NC1CC(=NOCC(F)(F)F)C1 (centres unmarked) [Compound A79]
≥ 80%: pest or weed control at 200 ppm (Spodoptera littoralis [2]) | pest or weed control at 200 ppm (Heliothis virescens) | pest or weed control at 200 ppm (Plutella xylostella) | pest or weed control at 200 ppm (Diabrotica balteata) | pest or weed control at 200 ppm (Thrips tabaci) | pest or weed control at 200 ppm (Tetranychus urticae)

Cc1cc(NC(=O)c2ccc(C3=COC(c4cc(Cl)cc(Cl)c4)(C(F)(F)F)C3)cc2C)n(C)n1 (centres unmarked) [Compound D16]
≥ 80%: pest or weed control at 200 ppm (Spodoptera littoralis [2]) | pest or weed control at 200 ppm (Heliothis virescens) | pest or weed control at 200 ppm (Plutella xylostella) | pest or weed control at 200 ppm (Diabrotica balteata) | pest or weed control at 12.5 ppm (Myzus persicae) | pest or weed control at 200 ppm (Thrips tabaci)

CCCCNC(=O)c1ccc(C2=COC(c3cc(Cl)cc(Cl)c3)(C(F)(F)F)C2)cc1C (centres unmarked) [Compound D3]
≥ 80%: pest or weed control at 200 ppm (Spodoptera littoralis [2]) | pest or weed control at 200 ppm (Heliothis virescens) | pest or weed control at 200 ppm (Plutella xylostella) | pest or weed control at 200 ppm (Diabrotica balteata) | pest or weed control at 12.5 ppm (Myzus persicae) | pest or weed control at 200 ppm (Thrips tabaci) | pest or weed control at 200 ppm (Tetranychus urticae)

Cc1cc(C2=COC(c3cc(Cl)cc(Cl)c3)(C(F)(F)F)C2)ccc1C(=O)NC1(C)CSC1 (centres unmarked) [Compound D18]
≥ 80%: pest or weed control at 200 ppm (Spodoptera littoralis [2]) | pest or weed control at 200 ppm (Heliothis virescens) | pest or weed control at 200 ppm (Plutella xylostella) | pest or weed control at 200 ppm (Diabrotica balteata) | pest or weed control at 12.5 ppm (Myzus persicae) | pest or weed control at 200 ppm (Thrips tabaci) | pest or weed control at 200 ppm (Tetranychus urticae)

Cc1cc(C2=COC(c3cc(Cl)cc(Cl)c3)(C(F)(F)F)C2)ccc1C(=O)NCC(F)(F)F (centres unmarked) [Compound D1]
≥ 80%: pest or weed control at 12.5 ppm (Spodoptera littoralis [1]) | pest or weed control at 200 ppm (Spodoptera littoralis [2]) | pest or weed control at 200 ppm (Heliothis virescens) | pest or weed control at 200 ppm (Plutella xylostella) | pest or weed control at 200 ppm (Diabrotica balteata) | pest or weed control at 200 ppm (Thrips tabaci)

Cc1cc(C2=COC(c3cc(Cl)cc(Cl)c3)(C(F)(F)F)C2)ccc1C(=O)NCc1ccc(Cl)nc1 (centres unmarked) [Compound D13]
≥ 80%: pest or weed control at 200 ppm (Spodoptera littoralis [2]) | pest or weed control at 200 ppm (Heliothis virescens) | pest or weed control at 200 ppm (Plutella xylostella) | pest or weed control at 200 ppm (Diabrotica balteata) | pest or weed control at 12.5 ppm (Myzus persicae) | pest or weed control at 200 ppm (Tetranychus urticae)

N#Cc1cc(C2=CC(c3cc(Cl)cc(Cl)c3)(C(F)(F)F)OC2)ccc1-n1cc(Br)cn1 (centres unmarked) [Compound G2, 2-(4-Bromo-pyrazol-1-yl)-5-[5-(3,5-dichloro-phenyl)-5-trifluoromethyl-2,5-dihydro-furan-3-yl]-benzonitrile]
≥ 80%: pest or weed control at 200 ppm (Spodoptera littoralis [2])

Cc1cc(C2=COC(c3cc(Cl)cc(Cl)c3)(C(F)(F)F)C2)ccc1C(=O)NC1CC2CCC1C2 (centres unmarked) [Compound D22]
≥ 80%: pest or weed control at 200 ppm (Plutella xylostella) | pest or weed control at 200 ppm (Diabrotica balteata) | pest or weed control at 200 ppm (Thrips tabaci)

Cc1cc(C2=COC(c3cc(Cl)cc(Cl)c3)(C(F)(F)F)C2)ccc1C(=O)NCc1ccccc1 (centres unmarked) [Compound D9]
≥ 80%: pest or weed control at 200 ppm (Spodoptera littoralis [2]) | pest or weed control at 200 ppm (Heliothis virescens) | pest or weed control at 200 ppm (Plutella xylostella) | pest or weed control at 200 ppm (Diabrotica balteata) | pest or weed control at 12.5 ppm (Myzus persicae) | pest or weed control at 200 ppm (Thrips tabaci) | pest or weed control at 200 ppm (Tetranychus urticae)

Cc1cc(C2=COC(c3cc(Cl)cc(Cl)c3)(C(F)(F)F)C2)ccc1C(=O)Nc1cccc(F)c1 (centres unmarked) [Compound D14]
≥ 80%: pest or weed control at 200 ppm (Spodoptera littoralis [2]) | pest or weed control at 200 ppm (Heliothis virescens) | pest or weed control at 200 ppm (Plutella xylostella) | pest or weed control at 200 ppm (Diabrotica balteata) | pest or weed control at 12.5 ppm (Myzus persicae) | pest or weed control at 200 ppm (Thrips tabaci) | pest or weed control at 200 ppm (Tetranychus urticae)

CSCC(C)(C)NC(=O)c1ccc(C2=COC(c3cc(Cl)cc(Cl)c3)(C(F)(F)F)C2)cc1C (centres unmarked) [Compound D19]
≥ 80%: pest or weed control at 200 ppm (Spodoptera littoralis [2]) | pest or weed control at 200 ppm (Heliothis virescens) | pest or weed control at 200 ppm (Plutella xylostella) | pest or weed control at 200 ppm (Diabrotica balteata) | pest or weed control at 12.5 ppm (Myzus persicae) | pest or weed control at 200 ppm (Tetranychus urticae)
